Common to all, as to experiment: Minimal inhibitory concentration, agar serial dilution
Common to all, as to assay type: cell-based
What all share (conditions): TSA, inoculum 10^7 /ml

One assay has as its system Proteus vulgaris GN4413. The source says: (§1) (a) Minimal inhibitory concentrations (Table 1 and 2)
(§2) Method: Agar serial dilution

For a further assay, the system named is Proteus rettgeri GN4733.
Excerpt: as §1, §2

Another assay deals with Proteus morganii IFO3168.
Excerpt: as §1, §2

The next assay has as its system Proteus rettgeri TN338.
Excerpt: as §1, §2

Another assay relates to Serratia marcescens TN24.
Excerpt: as §1, §2

A further assay has as its system Escherichia coli 0-111.
Excerpt: as §1, §2

Assay [1] has as its system Proteus vulgaris IFO 3988.
Excerpt: as §1, §2

Assay [2] has as its system Escherichia coli NIHJ JC-2.
Excerpt: as §1, §2

For assay [3], the system named is Klebsiella pneumoniae GN-3835.
Excerpt: as §1, §2

For assay [4], the system named is Citrobacter freundii GN1706.
Excerpt: as §1, §2

In assay [5] the test system is Enterobacter cloacae TN1282.
Excerpt: as §1, §2

For assay [6], the system named is Citrobacter freundii GN99.
Excerpt: as §1, §2

In assay [7] the test system is Staphylococcus aureus 1840.
Excerpt: as §1, §2

Assay [8] has as its system Serratia marcescens IFO 12648.
Excerpt: as §1, §2

The subject of assay [9] is Staphylococcus aureus 209P.
Excerpt: as §1, §2

The test system of another assay is Klebsiella pneumoniae DT.
Excerpt: as §1, §2

For another assay, the system named is Proteus mirabilis GN4359.
Excerpt: as §1, §2

The test system of the next assay is Escherichia coli T-7.
Excerpt: as §1, §2

Molecules are shown by their SMILES.

With `Cc1nsc(SCC2=C(C(=O)O)N3C(=O)C(NC(=O)/C(=N\O)c4csc(=N)[nH]4)C3SC2)n1` (stereo not drawn) [Example 14, sodium 7-[2-(2-imino-4-thiazoline-4-yl)-2-hydroxyimino-acetamido]-3-(3-methyl-1,2,4-thiadiazol-5-yl)thiomethyl-3-cephem-4-carboxylate (syn-isomer)], the “Minimal inhibitory concentration (MIC)” value in the assay on Proteus vulgaris GN4413 was found to be 1.56; with Proteus rettgeri GN4733, 0.39; in the assay with Proteus morganii IFO3168, 0.20; with Proteus rettgeri TN338 it was 0.024; with Serratia marcescens TN24, 0.78; with Escherichia coli 0-111 it was 0.20. The “Minimal inhibitory concentration (MIC)” value is reported as 0.10 in assay [1]; 0.39 in assay [2]; 0.78 in assay [3]; 0.78 in assay [4]; 6.25 in assay [5]; 0.39 in assay [6]. Further, the “Minimal inhibitory concentration (MIC)” value in assay [7] was 0.78; in assay [8] it was 6.25; in assay [9] it was 0.39; with Klebsiella pneumoniae DT, 0.20; in the assay on Proteus mirabilis GN4359 it was 0.39.

Consider `Cc1nnc(SCC2=C(C(=O)[O-])N3C(=O)C(NC(=O)Cn4cnnn4)[C@H]3SC2)s1.[Na+]` (stereo partly shown) [Cefazolin, sodium 7-(1H-tetrazol-1-yl)acetamido-3-(2-methyl-1,3,4-thiadiazol-5-yl)thiomethyl-3-cephem-4-carboxylate, reference compound], for which the “Minimal inhibitory concentration (MIC)” value in the assay on Proteus vulgaris GN4413 was greater than 100; with Proteus rettgeri GN4733, 100; with Proteus morganii IFO3168, 100; with Proteus rettgeri TN338, no more than 0.2; with Serratia marcescens TN24, greater than 100; in the assay with Escherichia coli 0-111 it was 1.56. Also, the “Minimal inhibitory concentration (MIC)” value is on record as 3.13 in assay [1]; 1.56 in assay [2]; 6.25 in assay [3]; greater than 100 in [4]; 12.5 in [6]; 1.56 in assay [7]. The “Minimal inhibitory concentration (MIC)” value in the assay with Escherichia coli T-7 is on record as 50; in [8], greater than 100; in assay [9], 0.39; in the assay with Klebsiella pneumoniae DT, 1.56; with Proteus mirabilis GN4359, 6.25.

Turning to `N=c1[nH]c(/C(=N/O)C(=O)NC2C(=O)N3C(C(=O)O)=C(CSc4cnn[nH]4)CSC23)cs1` (stereo not drawn) [Example 13, sodium 7-[2-(2-imino-4-thiazolin-4-yl)-2-hydroxyimino-acetamido]-3-(1,2,3-triazol-5-yl)thiomethyl-3-cephem-4-carboxylate (syn-isomer)], the “Minimal inhibitory concentration (MIC)” value with Proteus vulgaris GN4413 is 50; with Proteus rettgeri GN4733 it was 0.20; in the assay on Proteus morganii IFO3168 it was 0.20; with Proteus rettgeri TN338, no more than 0.012; in the assay with Serratia marcescens TN24, 1.56; in the assay on Escherichia coli 0-111, 0.05. Further, the “Minimal inhibitory concentration (MIC)” value in [1] amounted to 0.10; in assay [2], 0.10; in assay [3] it was 0.20; in [4], 0.78; in assay [5] it was 25; in assay [6] it was 0.39. Further, the “Minimal inhibitory concentration (MIC)” value in assay [7] was found to be 0.78; with Escherichia coli T-7, 0.78; in [8], 12.5; in assay [9], 0.78; with Klebsiella pneumoniae DT it was 0.05; in the assay with Proteus mirabilis GN4359, 0.10.

For the compound `N=c1[nH]c(C(=NO)C(=O)NC2C(=O)N3C(C(=O)[O-])=C(C[n+]4ccc(C(N)=O)cc4)CSC23)cs1` (stereo not drawn) [Example 17, 7-[2-(2-imino-4-thiazolin-4-yl)-2-hydroxyimino-acetamido]-3-(4-carbamoylpyridiniummethyl)-3-cephem-4-carboxylate (syn-isomer)], the “Minimal inhibitory concentration (MIC)” value is 3.13 with Proteus vulgaris GN4413; 0.20 in the assay on Proteus rettgeri GN4733; 0.39 with Proteus morganii IFO3168; 0.05 in the assay on Proteus rettgeri TN338; 0.78 in the assay on Serratia marcescens TN24; 0.20 in the assay on Escherichia coli 0-111. Further, the “Minimal inhibitory concentration (MIC)” value was 0.39 in assay [1]; 0.39 in assay [2]; 1.56 in assay [3]; 0.78 in assay [4]; 12.5 in assay [5]; 0.20 in assay [6]. The “Minimal inhibitory concentration (MIC)” value in assay [7] is given as 0.39; with Escherichia coli T-7, 25; in [8], 1.56; in assay [9] it was 0.39; in the assay on Klebsiella pneumoniae DT, 0.20; in the assay with Proteus mirabilis GN4359, 0.39.

For `N=c1[nH]c(/C(=N/O)C(=O)NC2C(=O)N3C(C(=O)O)=C(COC(N)=O)CSC23)cs1` (stereo not drawn) [Example 26, sodium 7-[2-(2-imino-4-thiazolin-4-yl)-2-hydroxyimino-acetamido]-3-carbamoyloxymethyl-3-cephem-4-carboxylate (syn-isomer)], the “Minimal inhibitory concentration (MIC)” value in the assay on Proteus vulgaris GN4413 was 50; in the assay with Proteus rettgeri GN4733, 0.024; in the assay on Proteus morganii IFO3168, 0.39; in the assay with Proteus rettgeri TN338 it was no more than 0.012; in the assay with Serratia marcescens TN24 it was 1.56; in the assay on Escherichia coli 0-111 it was 0.024. For the same compound, the “Minimal inhibitory concentration (MIC)” value is listed as 0.10 in assay [1]; 0.05 in assay [2]; 0.05 in assay [3]; 0.10 in assay [4]; 12.5 in assay [5]; 0.05 in assay [6]. The “Minimal inhibitory concentration (MIC)” value amounted to 0.78 in assay [7]; 0.39 with Escherichia coli T-7; 12.5 in assay [8]; 0.78 in [9]; 0.024 in the assay with Klebsiella pneumoniae DT; 0.05 in the assay on Proteus mirabilis GN4359.

Regarding `CC(=O)OCC1=C(C(=O)[O-])N2C(=O)C(NC(=O)Cc3cccs3)[C@H]2SC1.[Na+]` (stereo partly shown) [Cephalothin, sodium 7-(2-thienylacetamido)-3-acetoxymethyl-3-cephem-4-carboxylate, reference compound], the “Minimal inhibitory concentration (MIC)” value with Proteus vulgaris GN4413 is reported as greater than 100; in the assay with Proteus rettgeri GN4733, greater than 100; with Proteus morganii IFO3168, greater than 100; in the assay with Proteus rettgeri TN338, 1.56; in the assay on Serratia marcescens TN24 it was greater than 100; in the assay on Escherichia coli 0-111 it was 3.13. Besides, the “Minimal inhibitory concentration (MIC)” value is listed as 1.56 in assay [1]; 12.5 in assay [2]; 12.5 in [3]; greater than 100 in assay [4]; greater than 100 in [5]; 25 in [6]. Besides, the “Minimal inhibitory concentration (MIC)” value in assay [7] is recorded as 0.39; with Escherichia coli T-7, 100; in [8], greater than 100; in assay [9], 0.20; in the assay on Klebsiella pneumoniae DT it was 1.56; in the assay with Proteus mirabilis GN4359, 3.13.

For the origin of these results see patent US4963542A, “Cephalosporin derivatives” (Takeda Chemical Industries, Ltd., priority 1976, dated 1990).
